Consider 20 compounds from patent US10493060B2, “Spirocyclic compounds” (ZENO ROYALTIES & MILESTONES, LLC, priority 2015, dated 2019).

In one experiment the target is Activated ERK1 (Homo sapiens (Human), UniProt P27361). The experiment can be described thus: Active ERK1 kinase assay (Mobility Shift Assay). It counts as biochemical. On the procedure: (§1) Activated ERK1 and ERK2 activity was determined in a Mobility Shift Assay (MSA) format as follows: Compound and kinase solution were prepared with assay buffer (20 mM HEPES, 0.01% Triton X-100, 2 mM DTT, pH7.5) and mixed and incubated in for 30 mins at rt. ERK1 & ERK2 were then activated by the addition of Fl-Substrate, ATP and metal solution and incubated for 1 h at rt. After 1 h, the reaction was terminated by the addition of […] of Termination Buffer (QuickScout Screening Assist MSA; Carna Biosciences) to the well. The reaction mixture was applied to LabChip™ system (PerkinElmer), and the product and substrate peptide peaks were separated, analyzed and quantitated. The kinase reaction is evaluated by the product ratio calculated from peak heights of product (P) and substrate (S) peptides (P/(P+S)).

The next experiment addresses Activated ERK2 (Homo sapiens (Human), UniProt P28482). Description: Active ERK2 kinase assay (Mobility Shift Assay). It counts as biochemical. As for the experimental part: as §1

Bounds are passed on as bounds.

Chain of Activated ERK2 (P28482 whole entry): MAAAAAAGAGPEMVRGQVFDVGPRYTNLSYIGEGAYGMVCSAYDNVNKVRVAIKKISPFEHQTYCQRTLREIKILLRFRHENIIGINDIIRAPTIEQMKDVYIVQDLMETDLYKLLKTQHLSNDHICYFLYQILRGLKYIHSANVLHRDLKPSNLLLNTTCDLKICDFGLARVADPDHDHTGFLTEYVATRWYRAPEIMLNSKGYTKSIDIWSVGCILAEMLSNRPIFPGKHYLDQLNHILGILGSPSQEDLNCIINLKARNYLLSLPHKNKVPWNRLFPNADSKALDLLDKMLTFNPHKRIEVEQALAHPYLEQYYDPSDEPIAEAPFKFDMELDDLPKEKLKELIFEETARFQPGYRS
Chain of Activated ERK1 (P27361 whole entry): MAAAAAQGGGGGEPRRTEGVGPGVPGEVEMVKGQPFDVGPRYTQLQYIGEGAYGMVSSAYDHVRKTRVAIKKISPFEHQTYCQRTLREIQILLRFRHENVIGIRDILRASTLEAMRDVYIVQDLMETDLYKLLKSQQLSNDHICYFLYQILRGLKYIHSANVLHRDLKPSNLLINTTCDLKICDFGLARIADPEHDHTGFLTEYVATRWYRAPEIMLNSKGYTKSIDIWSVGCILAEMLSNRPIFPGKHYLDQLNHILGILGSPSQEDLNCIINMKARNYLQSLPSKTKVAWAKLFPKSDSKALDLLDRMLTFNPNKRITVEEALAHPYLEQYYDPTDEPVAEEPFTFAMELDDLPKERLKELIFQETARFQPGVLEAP

Consider `CC(C)Oc1ccc(-c2n[nH]c3ccc(N4CCC5(CCN(CC(=O)N6CC=C(c7ccc(-c8ncn(C)n8)cc7)CC6)C5)C4=O)cc23)cn1` (stereo not shown) [Example 1, 2-(3-(6-Isopropoxypyridin-3-yl)-1H-indazol-5-yl)-7-(2-(4-(4-(1-methyl-1H-1,2,4-triazol-3-yl)phenyl)-3,6-dihydropyridin-1(2H)-yl)-2-oxoethyl)-2,7-diazaspiro[4.4]nonan-1-one], for which the IC50 on Activated ERK1 and at Activated ERK2 was at most 50 nM each time.

For the compound `CC(C)Oc1ccc(-c2n[nH]c3ccc(N4CCC5(CCN(CC(=O)N6CCN(c7ccc(-c8ncn(C)n8)cc7)CC6)C5)C4)cc23)cn1` (stereo not shown) [Example 2, 2-(7-(3-(6-Isopropoxypyridin-3-yl)-1H-indazol-5-yl)-2,7-diazaspiro[4.4]nonan-2-yl)-1-(4-(4-(1-methyl-1H-1,2,4-triazol-3-yl)phenyl)piperazin-1-yl)ethan-1-one], the IC50 at Activated ERK1 and on Activated ERK2 was at least 250 nM throughout.

In the case of `CC(C)Oc1ccc(-c2n[nH]c3ccc(N4CCC5(CCN(CC(=O)N6CCN(c7ccc(-c8ncn(C)n8)cc7)CC6)C5)C4=O)cc23)cn1` (stereo not shown) [Example 3, 2-(3-(6-Isopropoxypyridin-3-yl)-1H-indazol-5-yl)-7-(2-(4-(4-(1-methyl-1H-1,2,4-triazol-3-yl)phenyl)piperazin-1-yl)-2-oxoethyl)-2,7-diazaspiro[4.4]nonan-1-one], the IC50 on Activated ERK1 and at Activated ERK2 was at most 50 nM in each case.

As to `CC(C)Oc1ccc(-c2n[nH]c3ccc(N4CCC5(CCN(CC(=O)N6CC=C(c7ccc(-c8ncn(C)n8)cc7)CC6)C5)C4)cc23)cn1` (stereo not shown) [Example 4, 2-(7-(3-(6-Isopropoxypyridin-3-yl)-1H-indazol-5-yl)-2,7-diazaspiro[4.4]nonan-2-yl)-1-(4-(4-(1-methyl-1H-1,2,4-triazol-3-yl)phenyl)-3,6-dihydropyridin-1(2H)-yl)ethan-1-one], the half-inhibitory concentration (IC50) on Activated ERK1 and on Activated ERK2 was at least 250 nM throughout.

As to `CC(C)Oc1ccc(-c2n[nH]c3ccc(N4CCCC5(CCN(CC(=O)N6CC=C(c7ccc(-c8ncn(C)n8)cc7)CC6)C5)C4=O)cc23)cn1` (stereo not shown) [Example 5, 7-(3-(6-Isopropoxypyridin-3-yl)-1H-indazol-5-yl)-2-(2-(4-(4-(1-methyl-1H-1,2,4-triazol-3-yl)phenyl)-3,6-dihydropyridin-1 (2H)-yl)-2-oxoethyl)-2,7-diazaspiro[4.5]decan-6-one], the IC50 (commonly the concentration needed to halve the response being measured) at Activated ERK1 was at least 250 nM; at Activated ERK2, 50 to 250 nM.

`Cn1cnc(-c2ccc(N3CCN(C(=O)CN4CC[C@]5(CCN(c6ccc7[nH]nc(C8CC8)c7c6)C5=O)C4)CC3)cc2)n1` [Example 44, (S)-2-(3-Cyclopropyl-1H-indazol-5-yl)-7-(2-(4-(4-(1-methyl-1H-1,2,4-triazol-3-yl)phenyl)piperazin-1-yl)-2-oxoethyl)-2,7-diazaspiro[4.4]nonan-1-one]: the IC50 on Activated ERK2 fell in the range of 50 to 250 nM.

Take `Cn1cnc(-c2ccc(C3=CCN(C(=O)CN4CC[C@]5(CCN(c6ccc7[nH]nc(C8CC8)c7c6)C5=O)C4)CC3)cc2)n1` [Example 45, (S)-2-(3-Cyclopropyl-1H-indazol-5-yl)-7-(2-(4-(4-(1-methyl-1H-1,2,4-triazol-3-yl)phenyl)-3,6-dihydropyridin-1(2H)-yl)-2-oxoethyl)-2,7-diazaspiro[4.4]nonan-1-one]: the IC50 on Activated ERK2 is at most 50 nM.

For `CCn1cnc(-c2ccc(C3=CCN(C(=O)CN4CC[C@]5(CCN(c6ccc7[nH]nc(-c8ccc(OC(C)C)nc8)c7c6)C5=O)C4)CC3)cc2)n1` [Example 46, (S)-7-(2-(4-(4-(1-Ethyl-1H-1,2,4-triazol-3-yl)phenyl)-3,6-dihydropyridin-1(2H)-yl)-2-oxoethyl)-2-(3-(6-isopropoxypyridin-3-yl)-1H-indazol-5-yl)-2,7-diazaspiro[4.4]nonan-1-one], on Activated ERK2, the IC50 was at most 50 nM.

As to `CC(C)Oc1ccc(-c2n[nH]c3ccc(N4CC[C@]5(CCN(CC(=O)N6CC=C(c7ccc(-c8ncn(CCO)n8)cc7)CC6)C5)C4=O)cc23)cn1` [Example 47, (S)-7-(2-(4-(4-(1-(2-Hydroxyethyl)-1H-1,2,4-triazol-3-yl)phenyl)-3,6-dihydropyridin-1(2H)-yl)-2-oxoethyl)-2-(3-(6-isopropoxypyridin-3-yl)-1H-indazol-5-yl)-2,7-diazaspiro[4.4]nonan-1-one], the IC50 on Activated ERK2 was at most 50 nM.

As to `Cn1cc(-c2n[nH]c3ccc(N4CC[C@]5(CCN(CC(=O)N6CC=C(c7ccc(-c8ncn(C)n8)cc7)CC6)C5)C4=O)cc23)cn1` [Example 48, (S)-7-(2-(4-(4-(1-Methyl-1H-1,2,4-triazol-3-yl)phenyl)-3,6-dihydropyridin-1 (2H)-yl)-2-oxoethyl)-2-(3-(1-methyl-1H-pyrazol-4-yl)-1H-indazol-5-yl)-2,7-diazaspiro[4.4]nonan-1-one], on Activated ERK2, the half-inhibitory concentration (IC50) was at most 50 nM.

On to `COCCn1cnc(-c2ccc(C3=CCN(C(=O)CN4CC[C@]5(CCN(c6ccc7[nH]nc(-c8ccc(OC(C)C)nc8)c7c6)C5=O)C4)CC3)cc2)n1` [Example 49, (S)-2-(3-(6-Isopropoxypyridin-3-yl)-1H-indazol-5-yl)-7-(2-(4-(4-(1-(2-methoxyethyl)-1H-1,2,4-triazol-3-yl)phenyl)-3,6-dihydropyridin-1(2H)-yl)-2-oxoethyl)-2,7-diazaspiro[4.4]nonan-1-one], for which the IC50 at Activated ERK2 was at most 50 nM.

Turning to `CC(C)Oc1ccc(-c2n[nH]c3ccc(N4CC[C@]5(CCN(CC(=O)N6CC=C(c7ccc(-c8ncn(C9CC9)n8)cc7)CC6)C5)C4=O)cc23)cn1` [Example 50, (S)-7-(2-(4-(4-(1-Cyclopropyl-1H-1,2,4-triazol-3-yl)phenyl)-3,6-dihydropyridin-1(2H)-yl)-2-oxoethyl)-2-(3-(6-isopropoxypyridin-3-yl)-1H-indazol-5-yl)-2,7-diazaspiro[4.4]nonan-1-one], the IC50 at Activated ERK2 is at most 50 nM.

For `Cn1cnc(-c2ccc(C3=CCN(C(=O)CN4CC[C@]5(CCN(c6ccc7[nH]nc(C#N)c7c6)C5=O)C4)CC3)cc2)n1` [Example 51, (S)-5-(7-(2-(4-(4-(1-Methyl-1H-1,2,4-triazol-3-yl)phenyl)-3,6-dihydropyridin-1(2H)-yl)-2-oxoethyl)-1-oxo-2,7-diazaspiro[4.4]nonan-2-yl)-1H-indazole-3-carbonitrile], on Activated ERK2, the IC50 is at most 50 nM.

Take `Cn1cnc(-c2ccc(C3=CCN(C(=O)CN4CC[C@]5(CCN(c6ccc7[nH]nc(C(F)F)c7c6)C5=O)C4)CC3)cc2)n1` [Example 52, (S)-2-(3-(Difluoromethyl)-1H-indazol-5-yl)-7-(2-(4-(4-(1-methyl-1H-1,2,4-triazol-3-yl)phenyl)-3,6-dihydropyridin-1(2H)-yl)-2-oxoethyl)-2,7-diazaspiro[4.4]nonan-1-one]: the IC50 at Activated ERK2 was at most 50 nM.

Turning to `CCNc1n[nH]c2ccc(N3CC[C@]4(CCN(CC(=O)N5CC=C(c6ccc(-c7ncn(C)n7)cc6)CC5)C4)C3=O)cc12` [Example 53, (S)-2-(3-(Ethylamino)-1H-indazol-5-yl)-7-(2-(4-(4-(1-methyl-1H-1,2,4-triazol-3-yl)phenyl)-3,6-dihydropyridin-1(2H)-yl)-2-oxoethyl)-2,7-diazaspiro[4.4]nonan-1-one], the IC50 at Activated ERK2 was 50 to 250 nM.

Turning to `Cc1noc(-c2ccc(C3=CCN(C(=O)CN4CC[C@]5(CCN(c6ccc7[nH]nc(-c8ccc(OC(C)C)nc8)c7c6)C5=O)C4)CC3)cc2)n1` [Example 54, (S)-2-(3-(6-Isopropoxypyridin-3-yl)-1H-indazol-5-yl)-7-(2-(4-(4-(3-methyl-1,2,4-oxadiazol-5-yl)phenyl)-3,6-dihydropyridin-1(2H)-yl)-2-oxoethyl)-2,7-diazaspiro[4.4]nonan-1-one], the IC50 at Activated ERK2 is at most 50 nM.

As to `CC(C)Oc1ccc(-c2n[nH]c3ccc(N4CC[C@]5(CCN(CC(=O)N6CC=C(c7ccc(-c8ncn(C)n8)cc7F)CC6)C5)C4=O)cc23)cn1` [Example 55, (S)-7-(2-(4-(2-Fluoro-4-(1-methyl-1H-1,2,4-triazol-3-yl)phenyl)-3,6-dihydropyridin-1(2H)-yl)-2-oxoethyl)-2-(3-(6-isopropoxypyridin-3-yl)-1H-indazol-5-yl)-2,7-diazaspiro[4.4]nonan-1-one], the IC50 on Activated ERK2 is at most 50 nM.

Regarding `CC(C)Oc1ccc(-c2n[nH]c3ccc(N4CC[C@]5(CCN(CC(=O)N6CC=C(c7ccc(-c8ncn(C)n8)c(F)c7)CC6)C5)C4=O)cc23)cn1` [Example 56, (S)-7-(2-(4-(3-Fluoro-4-(1-methyl-1H-1,2,4-triazol-3-yl)phenyl)-3,6-dihydropyridin-1(2H)-yl)-2-oxoethyl)-2-(3-(6-isopropoxypyridin-3-yl)-1H-indazol-5-yl)-2,7-diazaspiro[4.4]nonan-1-one], the concentration for half-maximal inhibition (IC50) at Activated ERK2 was at most 50 nM.

On to `Cc1ccc(-c2n[nH]c3ccc(N4CC[C@]5(CCN(CC(=O)N6CC=C(c7ccc(-c8ncn(C)n8)cc7)CC6)C5)C4=O)cc23)cn1` [Example 57, (S)-7-(2-(4-(4-(1-Methyl-1H-1,2,4-triazol-3-yl)phenyl)-3,6-dihydropyridin-1(2H)-yl)-2-oxoethyl)-2-(3-(6-methylpyridin-3-yl)-1H-indazol-5-yl)-2,7-diazaspiro[4.4]nonan-1-one], for which the concentration for half-maximal inhibition (IC50) at Activated ERK2 is at most 50 nM.

As to `Cn1cnc(-c2ccc(C3=CCN(C(=O)CN4CC[C@]5(CCN(c6ccc7[nH]nc(-c8ccc(S(C)(=O)=O)cc8)c7c6)C5=O)C4)CC3)cc2)n1` [Example 58, (S)-7-(2-(4-(4-(1-Methyl-1H-1,2,4-triazol-3-yl)phenyl)-3,6-dihydropyridin-1(2H)-yl)-2-oxoethyl)-2-(3-(4-(methylsulfonyl)phenyl)-1H-indazol-5-yl)-2,7-diazaspiro[4.4]nonan-1-one], on Activated ERK2, the IC50 was at most 50 nM.
